{"source": "paper PMC6231190", "about": "(ACS Medicinal Chemistry Letters, 2018)", "key": {"WT p97": {"molecular_target": "WT p97 (Homo sapiens, UniProt P55072)", "sequence (P55072 whole entry)": "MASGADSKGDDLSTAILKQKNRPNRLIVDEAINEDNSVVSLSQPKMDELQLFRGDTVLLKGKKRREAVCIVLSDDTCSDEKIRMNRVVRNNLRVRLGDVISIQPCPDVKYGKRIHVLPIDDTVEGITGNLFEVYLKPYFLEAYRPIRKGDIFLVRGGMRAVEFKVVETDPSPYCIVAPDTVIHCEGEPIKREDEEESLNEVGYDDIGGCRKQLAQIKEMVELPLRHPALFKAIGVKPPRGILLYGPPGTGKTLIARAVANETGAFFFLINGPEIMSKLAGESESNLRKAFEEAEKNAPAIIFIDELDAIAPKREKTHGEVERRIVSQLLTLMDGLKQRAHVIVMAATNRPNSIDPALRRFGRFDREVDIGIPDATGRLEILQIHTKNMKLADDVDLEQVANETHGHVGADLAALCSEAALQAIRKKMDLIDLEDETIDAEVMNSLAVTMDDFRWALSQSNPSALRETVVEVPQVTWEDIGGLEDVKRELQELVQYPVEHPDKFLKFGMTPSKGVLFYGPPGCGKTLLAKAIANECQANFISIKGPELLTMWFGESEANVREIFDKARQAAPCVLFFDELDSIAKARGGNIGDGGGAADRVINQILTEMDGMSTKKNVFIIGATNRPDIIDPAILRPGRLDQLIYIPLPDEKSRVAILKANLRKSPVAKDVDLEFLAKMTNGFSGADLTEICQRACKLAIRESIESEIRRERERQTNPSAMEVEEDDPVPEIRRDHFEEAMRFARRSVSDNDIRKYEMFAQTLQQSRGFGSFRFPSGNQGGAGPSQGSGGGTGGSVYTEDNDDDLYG", "conditions": "for fold less potent than 17: p97 IC50 ratio vs 17; for p97 inhibition (in words): biochemical ATPase assay"}, "NCI-60 cell line panel [1]": {"test_system": "NCI-60 cell line panel", "assay": "cells", "conditions": "Homo sapiens, read-out: pGI50, prostate cancer cell lines (converted)"}, "Aqueous solubility": {"assay": "Aqueous solubility", "type": "physicochemical", "conditions": "potassium phosphate buffer, pH 7.4, solubility (μM)"}, "NCI-60 cell line panel [2]": {"test_system": "NCI-60 cell line panel", "conditions": "range over lines; for pGI50, CNS tumor cell lines: NCI-60 CNS tumor subpanel; for pGI50, NSCL cancer cell lines: NCI-60 NSCL cancer subpanel; for pGI50, leukemia cell lines: NCI-60 leukemia subpanel; for pGI50, melanoma cell lines: NCI-60 melanoma subpanel; for pGI50, ovarian cancer cell lines: NCI-60 ovarian cancer subpanel; for pGI50, renal cancer cell lines: NCI-60 renal cancer subpanel"}, "[3]": {"assay": "Metabolic stability in mouse liver microsomes", "type": "in vitro ADME", "conditions": "pH 7.4, MLM (t1/2, min)"}, "[4]": {"test_system": "HeLa cell line with the ubiquitin fusion degradation reporter UbG76V-GFP", "assay": "UbG76V-GFP accumulation assay"}, "[5]": {"assay": "Metabolic stability in human liver microsomes", "type": "in vitro ADME", "conditions": "pH 7.4, HLM (t1/2, min)"}, "[6]": {"conditions": "Homo sapiens, HeLa, 6 h, read-out: Ub^G76 V-GFP EC50 (μM), 6 h"}}, "note": "Read-outs that look alike come from different tables or passages of the source.", "data": [{"smiles": "c1cc(-c2cc3ccccc3[nH]2)cc(N2CCC(NCCN3CCNCC3)CC2)c1", "note": "[Compound 8]", "values": [{"measurement": "improvement in potency compared to compound 1", "setting": "WT p97; p97 IC50 ratio vs 1", "value": "~3", "unit": "fold"}]}, {"smiles": "CC(C)N1CCN(CCCNC2CCN(c3cccc(-c4cc5ccccc5[nH]4)c3)CC2)CC1", "note": "[Compound 13]", "values": [{"measurement": "fold less potent than 2-carbon homologue 11", "setting": "WT p97; p97 IC50 ratio vs 11", "value": "~2", "unit": "fold"}]}, {"smiles": "CN(C)CCNC1CCN(c2cccc(-c3cc4cc(F)ccc4[nH]3)c2)CC1", "note": "[Compound 15]", "values": [{"measurement": "fold less potent than 14", "setting": "WT p97; p97 IC50 ratio vs 14", "value": "> 10", "unit": "fold"}]}, {"smiles": "CC(C)N1CCC(NC2CCN(c3cccc(-c4cc5cc(F)ccc5[nH]4)c3)CC2)CC1", "note": "[Compound 17]", "values": [{"measurement": "GI50", "setting": "NCI-60 cell line panel [1]", "value": 2000, "unit": "nM"}, {"measurement": "solubility", "setting": "Aqueous solubility", "value": "> 300", "unit": "µM"}, {"measurement": "pGI50, CNS tumor cell lines", "setting": "NCI-60 cell line panel [2]", "value": "−5.7 to −5.8"}, {"measurement": "pGI50, NSCL cancer cell lines", "setting": "NCI-60 cell line panel [2]", "value": "−5.7 to −6.0"}, {"measurement": "pGI50, colon cancer cell lines", "setting": "NCI-60 cell line panel [2]; NCI-60 colon cancer subpanel", "value": "5.8 to −6.4"}, {"measurement": "pGI50, leukemia cell lines", "setting": "NCI-60 cell line panel [2]", "value": "−5.7 to −6.7"}, {"measurement": "pGI50, melanoma cell lines", "setting": "NCI-60 cell line panel [2]", "value": "−5.7 to −5.9"}, {"measurement": "pGI50, ovarian cancer cell lines", "setting": "NCI-60 cell line panel [2]", "value": "−5.7 to −5.8"}, {"measurement": "pGI50, renal cancer cell lines", "setting": "NCI-60 cell line panel [2]", "value": "−5.7 to −5.8"}, {"measurement": "half-life at 10 µM", "setting": "[3]", "value": "> 4.5", "unit": "h"}, {"measurement": "EC50", "setting": "[4]; [6]", "value": "> 40", "unit": "µM"}]}, {"smiles": "CC(C)N1CCC(N[C@H]2CC[C@H](c3cccc(-c4cc5cc(F)ccc5[nH]4)c3)CC2)CC1", "note": "[Compound 18]", "values": [{"measurement": "fold less potent than 17", "setting": "WT p97", "value": "3–4 fold"}]}, {"smiles": "CC(C)N1CCC(N[C@H]2CC[C@@H](c3cccc(-c4cc5cc(F)ccc5[nH]4)c3)CC2)CC1", "note": "[Compound 19]", "values": [{"measurement": "fold less potent than 17", "setting": "WT p97", "value": "> 100", "unit": "fold"}, {"measurement": "fold less potent compared to the trans-isomer", "setting": "WT p97; p97 IC50 ratio vs 18", "value": "> 20", "unit": "fold"}]}, {"smiles": "CC(C)N1CCC2(CCN(c3cccc(-c4cc5cc(F)ccc5[nH]4)c3)CC2)CC1", "note": "[Compound 20]", "values": [{"measurement": "p97 inhibition (in words)", "setting": "WT p97", "value": "micromolar range"}]}, {"smiles": "CC(C)N1CCN(C2CCN(c3cccc(-c4cc5cc(F)ccc5[nH]4)c3)CC2)CC1", "note": "[Compound 21]", "values": [{"measurement": "p97 inhibition (in words)", "setting": "WT p97", "value": "micromolar range"}]}, {"smiles": "CC(C)N1CC2CN(c3cccc(-c4cc5cc(F)ccc5[nH]4)c3)CC2C1", "note": "(centres unmarked) [Compound 22]", "values": [{"measurement": "p97 inhibition (in words)", "setting": "WT p97", "value": "micromolar range"}]}, {"smiles": "CN1CCN(C2(CNC3CCN(c4cccc(-c5cc6cc(F)ccc6[nH]5)c4)CC3)CCC2)CC1", "note": "[Compound 23]", "values": [{"measurement": "solubility", "setting": "Aqueous solubility", "value": "> 300", "unit": "µM"}, {"measurement": "pGI50, CNS tumor cell lines", "setting": "NCI-60 cell line panel [2]", "value": "−5.7 to −5.8"}, {"measurement": "pGI50, NSCL cancer cell lines", "setting": "NCI-60 cell line panel [2]", "value": "−5.7 to −5.8"}, {"measurement": "pGI50, leukemia cell lines", "setting": "NCI-60 cell line panel [2]", "value": "−5.7 to −6.7"}, {"measurement": "pGI50, melanoma cell lines", "setting": "NCI-60 cell line panel [2]", "value": "−5.7 to −6.5"}, {"measurement": "pGI50, ovarian cancer cell lines", "setting": "NCI-60 cell line panel [2]", "value": "−5.7 to −5.8"}, {"measurement": "pGI50, renal cancer cell lines", "setting": "NCI-60 cell line panel [2]", "value": "−5.7 to −5.8"}, {"measurement": "half-life at 10 µM", "setting": "[3]", "value": "> 4.5", "unit": "h"}, {"measurement": "EC50", "setting": "[4]; [6]", "value": "> 40", "unit": "µM"}, {"measurement": "half-life at 10 µM", "setting": "[5]", "value": "> 4.5", "unit": "h"}, {"measurement": "fold more potent than the N-iPr analog (24)", "setting": "WT p97; p97 IC50 ratio vs 24", "value": 5, "unit": "fold"}]}, {"smiles": "Cc1cc(OCc2nnc(SC3CCCC3)n2-c2cccnc2)ccc1-c1ccc(S(C)(=O)=O)cc1", "note": "[NMS-873, reference compound]", "values": [{"measurement": "EC50", "setting": "[4]; read-out: Ub^G76 V-GFP EC50 (μM), 1 h", "value": 1.4, "unit": "µM"}]}]}
